From ChEMBL document CHEMBL5053551, “Structure-Based Design of Dual Partial Peroxisome Proliferator-Activated Receptor γ Agonists/Soluble Epoxide Hydrolase Inhibitors” (J Med Chem, 2021) come the findings set out here.

The nature of series [1]: Drug metabolism in rat liver microsomes assessed as metabolite formation after 60 mins by UPLC-MS analysis. Format: ADME, Microsome. The conditions noted are these: 1 h.
In series [2] the target is T1, Peroxisome proliferator-activated receptor alpha (Homo sapiens) (UniProt Q07869).
T1 sequence (whole entry): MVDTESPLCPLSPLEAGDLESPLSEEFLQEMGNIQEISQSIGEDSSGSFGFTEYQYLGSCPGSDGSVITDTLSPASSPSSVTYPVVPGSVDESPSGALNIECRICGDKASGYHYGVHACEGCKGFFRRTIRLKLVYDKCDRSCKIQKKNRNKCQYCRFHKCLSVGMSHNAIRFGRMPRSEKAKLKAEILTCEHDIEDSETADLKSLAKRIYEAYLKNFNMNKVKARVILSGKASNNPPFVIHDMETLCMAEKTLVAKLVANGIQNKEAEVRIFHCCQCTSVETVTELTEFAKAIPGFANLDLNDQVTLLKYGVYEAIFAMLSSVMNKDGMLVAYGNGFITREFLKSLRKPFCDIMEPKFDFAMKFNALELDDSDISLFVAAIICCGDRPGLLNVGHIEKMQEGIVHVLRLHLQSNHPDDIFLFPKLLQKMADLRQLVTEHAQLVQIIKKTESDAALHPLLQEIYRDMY
In words: Partial agonist activity at GAL4-tagged human PPARalpha LBD expressed in HEK293T cells at 3 uM incubated for 12 to 14 hrs by dual-Glo luciferase assay. Type of series: cell-based. To be noted: time 12-14 hrs.

Series [3] concerns the target T2, Peroxisome proliferator-activated receptor gamma (Homo sapiens, UniProt P37231).
T2 sequence (P37231 whole entry): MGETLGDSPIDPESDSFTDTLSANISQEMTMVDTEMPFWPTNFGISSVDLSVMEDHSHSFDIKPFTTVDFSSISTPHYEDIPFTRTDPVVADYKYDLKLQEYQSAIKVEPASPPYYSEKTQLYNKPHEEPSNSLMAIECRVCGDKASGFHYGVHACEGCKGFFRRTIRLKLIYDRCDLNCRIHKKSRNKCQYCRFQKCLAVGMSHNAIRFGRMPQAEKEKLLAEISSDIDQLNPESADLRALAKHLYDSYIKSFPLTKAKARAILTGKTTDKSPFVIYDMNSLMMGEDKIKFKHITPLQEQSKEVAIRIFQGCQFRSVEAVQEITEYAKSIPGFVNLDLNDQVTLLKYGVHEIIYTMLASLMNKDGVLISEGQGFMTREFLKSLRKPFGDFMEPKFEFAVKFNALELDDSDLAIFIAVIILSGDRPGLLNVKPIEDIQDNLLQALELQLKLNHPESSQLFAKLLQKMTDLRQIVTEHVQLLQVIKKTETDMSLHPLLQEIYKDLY
In words: Partial agonist activity at recombinant sGSF-PPARgamma (unknown origin) assessed as reduction in rosiglitazone induced CBP-1 recruitment incubated for 1 hr by HTRF competitive assay.

For series [4], the target named is T3, Vitamin D3 receptor (Homo sapiens) (UniProt P11473).
T3 sequence (whole entry): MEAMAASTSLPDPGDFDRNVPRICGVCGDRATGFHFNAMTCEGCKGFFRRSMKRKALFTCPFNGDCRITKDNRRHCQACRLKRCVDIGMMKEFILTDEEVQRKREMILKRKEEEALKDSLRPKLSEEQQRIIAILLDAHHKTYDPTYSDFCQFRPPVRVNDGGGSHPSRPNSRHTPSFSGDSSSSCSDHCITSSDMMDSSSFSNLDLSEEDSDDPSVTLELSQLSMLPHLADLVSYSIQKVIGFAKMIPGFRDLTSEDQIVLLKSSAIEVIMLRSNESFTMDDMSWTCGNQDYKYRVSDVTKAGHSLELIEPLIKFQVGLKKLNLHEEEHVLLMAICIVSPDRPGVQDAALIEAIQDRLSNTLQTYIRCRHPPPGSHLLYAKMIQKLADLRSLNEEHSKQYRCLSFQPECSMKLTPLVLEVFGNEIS
Put plainly: Partial agonist activity at GAL4-tagged human VDR LBD expressed in HEK293T cells at 3 uM incubated for 12 to 14 hrs by dual-Glo luciferase assay. Format: cell-based. The conditions noted are these: filed as partial agonist, time 12-14 hrs.

Series [5] has as its target T4, Peroxisome proliferator-activated receptor gamma (Homo sapiens) (UniProt P37231).
T4 sequence (whole entry): T2 sequence (P37231 whole entry)
In words: Partial agonist activity at recombinant sGSF-PPARgamma (unknown origin) assessed as CBP-1 recruitment by HT-FRET assay relative to control.

Series [6] concerns the target T5, Bifunctional epoxide hydrolase 2 (Homo sapiens, UniProt P34913).
T5 sequence (P34913 whole entry): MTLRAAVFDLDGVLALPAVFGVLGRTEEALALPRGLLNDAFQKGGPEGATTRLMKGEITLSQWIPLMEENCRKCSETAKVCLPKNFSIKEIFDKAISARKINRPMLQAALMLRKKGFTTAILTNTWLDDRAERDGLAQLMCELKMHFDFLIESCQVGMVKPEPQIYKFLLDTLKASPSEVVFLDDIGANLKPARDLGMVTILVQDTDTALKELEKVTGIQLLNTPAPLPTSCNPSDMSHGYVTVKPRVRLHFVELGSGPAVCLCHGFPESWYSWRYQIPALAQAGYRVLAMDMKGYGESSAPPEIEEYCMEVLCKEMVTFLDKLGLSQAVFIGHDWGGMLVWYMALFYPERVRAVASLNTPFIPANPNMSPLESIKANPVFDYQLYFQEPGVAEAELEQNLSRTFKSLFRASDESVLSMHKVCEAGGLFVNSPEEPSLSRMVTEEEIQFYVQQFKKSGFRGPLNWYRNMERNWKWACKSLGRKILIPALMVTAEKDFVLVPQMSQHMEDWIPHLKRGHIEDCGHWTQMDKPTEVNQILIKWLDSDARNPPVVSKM
In words: Inhibition of recombinant human full length sEH assessed as reduction in 6-methoxy-2-naphthaldehyde formation using PHOME as substrate preincubated for 30 to 45 mins followed by substrate addition and measured after 30 to 45 mins by fluorescence assay.

The nature of series [7]: Stability of compound in BALB/c mouse liver microsomes assessed as half life at 10 uM preincubated for 5 mins in presence of NADPH regenerating system followed by microsomal addition and measured upto 60 mins by HPLC analysis. The conditions noted are these: time 65 min. Type of series: ADME, Microsome.
Series [8] in a line: Stability of compound in Sprague-Dawley rat liver microsomes assessed as half life at 10 uM preincubated for 5 mins in presence of NADPH regenerating system followed by microsomal addition and measured upto 60 mins by HPLC analysis. Format: ADME, Microsome. The conditions noted are these: time 65 min.
Series [9] concerns HepG2. Put plainly: Cytotoxicity agianst human HepG2 cells assessed as reduction in cell viability at 10 to 30 uM after 48 hrs by WST-1 assay. The conditions noted are these: hepg2, 48 h, dose 10-30 µM. Type of series: cell-based.
Series [10] can be described thus: Solubility of compound in DPBS buffer. Type of series: physicochemical.
The subject of series [11] is HepG2. In words: Induction of cell proliferation in human HepG2 cells. Type of series: functional, cell-based. The conditions noted are these: dose 2.5-100 µM.
Series [12] deals with HepG2. Put plainly: Cytotoxicity agianst human HepG2 cells assessed as reduction in cell viability at 30 uM after 48 hrs by WST-1 assay. To be noted: hepg2, 48 h. Format: cell-based.

In brackets after ≈: the same amount, converted by molar mass. Activity calls are given as the source filed them. The calls are words filed in the database; no cut-off is given here.

Regarding `CS(=O)(=O)Nc1ccc(CNC(=O)c2ccc3c(ccn3Cc3cccc(F)c3)c2)c(C(F)(F)F)c1`, in series [1], the Drug metabolism result is given as “Metabolite_Detected”. The outcome in series [2] was inactive. For the same compound, the IC50 in [3] was found to be 1620 nM; in series [6] it was 5 nM. Moreover, the result in [4] was Active. Moreover, in series [5], the Emax amounted to 19%. Moreover, the values for the half-life at 10 µM in series [7] and in [8] were 61 min and 52 min, respectively. For the same compound, the Activity result in series [9] is reported as “Toxic”. This compound registered a solubility in [10] of 3 µM (≈ 1.56 µg/mL).
In the case of `O=C(NCc1ccc(NS(=O)(=O)C2CC2)cc1C(F)(F)F)c1ccc2c(ccn2Cc2cccc(F)c2)c1`, in series [2], the result was inactive. Also, the outcome in series [4] was Active. In addition, the Emax in series [5] amounted to 28%. In addition, the Activity result in [11] is “Dose-dependent effect”; in series [12] it was “Non-Toxic”. The half-life at 10 µM in [7] stood at 59 min; in series [8] it was 57 min. This compound came in with a solubility in series [10] of 3 µM (≈ 1.64 µg/mL).
